Measured values: US9084770B2, “Modulation of insulin like growth factor I receptor expression in cancer” (Antisense Therapeutics, Ltd., priority 2008, dated 2015)
pIC50: −log10 of the molar value. Where two headings read alike, the source gives them in different places.

Assays:
[1] = test system: human IGF-IR mRNA; assay: Antisense inhibition of human IGF-IR mRNA levels by quantitative RT-PCR (Table 1); assay type: cell-based; set-up: %INHIB (human IGF-IR mRNA levels): concentration or dose not given beside the values; conditions: quantitative RT-PCR; averages from 3 experiments
[2] = test system: PC3 cells; assay: Growth of PC3 cells with chemotherapeutic agents; assay type: cell-based, human; conditions: read-out: IC50 (cell growth)
From the text: (§1) PC3 cells cultured in vitro were selected for resistance to Paclitaxel (Ptx-R).

[3] = test system: Ptx-R PC3 cells; assay: Growth of Paclitaxel resistant Ptx-R PC3 cells with chemotherapeutic agents; assay type: cell-based, human; conditions: read-out: IC50 (cell growth)
From the text: as §1

[4] = test system: PC3 cells; assay: PC3 viable cells and apoptosis after transfection plus Paclitaxel; conditions: Homo sapiens, PC-3, 72 h, read-out: reduction of viable cell count
Method: PC3 cells cultured in vitro were transfected at concentrations of IGF-IR antisense oligonucleotide (ATL1101) or control oligodeoxynucleotide (ISIS 306064) ranging from 12.5 nM to 50 nM or oligofectamine control once per day on two sequential days. After the 2nd transfection, the PC3 cells were treated with concentrations of between 0.1 to 50 nM Paclitaxel. The number of viable cells remaining were determined 72 hours after Paclitaxel treatment.

[5] = Homo sapiens, PC-3, standard culture conditions

Compound | pIC50 [2, 5] | pIC50 [3, 5] | other results
323769 (antisense CATCACTGACCTCTTTCTAT; listed as DNA, chemistry not fully specified) [compound 323769] |  |  | %INHIB (human IGF-IR mRNA levels) [1]: 0%
N.N.[Cl][Pt][Cl] [Cisplatin] |  |  | pIC50 ([2]; standard culture conditions): 8.00; pIC50 ([3]; standard culture conditions): 7.61
CC(=O)O[C@@]12CO[C@@H]1C[C@H](O)[C@@]1(C)C(=O)[C@H](O)C3=C(C)[C@@H](OC(=O)[C@H](O)[C@@H](NC(=O)OC(C)(C)C)c4ccccc4)C[C@@](O)([C@@H](OC(=O)c4ccccc4)[C@H]21)C3(C)C [Docataxel] | 9.08 | 8.00 | 
O=C1c2c(O)ccc(O)c2C(=O)c2c(NCCNCCO)ccc(NCCNCCO)c21 [Mitoxantrone] | 8.06 | 6.42 | 
CC(=O)O[C@H]1C(=O)[C@@]2(C)[C@H]([C@H](OC(=O)c3ccccc3)[C@]3(O)C[C@H](OC(=O)[C@H](O)[C@@H](NC(=O)c4ccccc4)c4ccccc4)C(C)=C1C3(C)C)[C@]1(OC(C)=O)CO[C@@H]1C[C@@H]2O [Paclitaxel] | 8.59 | 7.30 | cytotoxicity at 0.0001 µM [4]: ~5%
